Biological target: T1, PLK1 (Homo sapiens, UniProt P53350)
T1 construct: Full-length, active GST-PLK1 is purified from Sf9 insect cells; made in house; host or cells: Sf9 insect cells
Test: Biochemical Characterization Assay: HTRF kinase assay, GST-PLK1 phosphorylation of GST-p53
Settings: GST-PLK1, GST-p53 substrate
Outline: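 Full-length active GST-PLK1 (Sf9, 3 ug/mL) phosphorylated full-length GST-p53 (E. coli) in Kinase Assay Buffer for 35 min at 37 °C. Stopped with EDTA; phospho-p53 detected by HTRF with anti-phospho-p53, Eu-anti-rabbit and APC-anti-GST antibodies.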

T1 sequence (P53350 whole entry): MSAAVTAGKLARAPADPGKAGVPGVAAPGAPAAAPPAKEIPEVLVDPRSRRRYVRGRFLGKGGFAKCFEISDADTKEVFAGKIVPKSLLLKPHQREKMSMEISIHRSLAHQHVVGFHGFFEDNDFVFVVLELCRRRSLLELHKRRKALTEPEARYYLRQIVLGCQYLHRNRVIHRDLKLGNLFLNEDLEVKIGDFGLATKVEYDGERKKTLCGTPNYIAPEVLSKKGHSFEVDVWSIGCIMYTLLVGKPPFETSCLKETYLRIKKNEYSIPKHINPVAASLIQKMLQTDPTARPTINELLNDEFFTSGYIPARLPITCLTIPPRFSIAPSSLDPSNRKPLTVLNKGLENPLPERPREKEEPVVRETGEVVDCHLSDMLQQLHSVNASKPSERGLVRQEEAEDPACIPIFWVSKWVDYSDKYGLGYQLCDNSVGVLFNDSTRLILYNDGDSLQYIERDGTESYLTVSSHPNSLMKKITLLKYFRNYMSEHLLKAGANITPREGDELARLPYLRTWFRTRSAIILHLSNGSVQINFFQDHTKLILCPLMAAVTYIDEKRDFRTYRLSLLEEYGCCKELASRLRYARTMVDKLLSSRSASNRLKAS

Row | Structure (SMILES) | IC50 (ATP) | IC50
1 | COc1cc(C(=O)N[C@H]2CC[C@@H](NC(=O)OC(C)(C)C)CC2)ccc1Nc1ncc2c(n1)N(C1CCCC1)CC(F)(F)C(=O)N2C [Example I-97, cis-{4-[4-(9-cyclopentyl-7,7-difluoro-5-methyl-6-oxo-6,7,8,9-tetrahydro-5H-pyrimido[4,5-b][1,4]diazepin-2-ylamino)-3-methoxy-benzoylamino]-cyclohexyl}-carbamic acid tert-butyl ester] | 51 to 500 nM | –
2 | COc1cc(C(=O)NC2CCN(C3CCCC3)CC2)ccc1Nc1ncc2c(n1)N(C1CCCC1)CC(F)(F)C(=O)N2C [Example I-63, 4-(9-cyclopentyl-7,7-difluoro-5-methyl-6-oxo-6,7,8,9-tetrahydro-5H-pyrimido[4,5-b][1,4]diazepin-2-ylamino)-N-(1-cyclopentyl-piperidin-4-yl)-3-methoxy-benzamide] | 1 to 50 nM | –
3 | COc1cc(C(=O)N[C@@H]2CCN(C(=O)OC(C)(C)C)C2)ccc1Nc1ncc2c(n1)N(C1CCCC1)CC(F)(F)C(=O)N2C [Example I-81, R-3-[4-(9-cyclopentyl-7,7-difluoro-5-methyl-6-oxo-6,7,8,9-tetrahydro-5H-pyrimido[4,5-b][1,4]diazepin-2-ylamino)-3-methoxy-benzoylamino]-pyrrolidine-1-carboxylic acid tert-butyl ester] | 51 to 500 nM | –
4 | COc1cc(C(=O)N[C@H]2CCNC2)ccc1Nc1ncc2c(n1)N(C1CCCC1)CC(F)(F)C(=O)N2C [Example I-83, S-4-(9-cyclopentyl-7,7-difluoro-5-methyl-6-oxo-6,7,8,9-tetrahydro-5H-pyrimido[4,5-b][1,4]diazepin-2-ylamino)-3-methoxy-N—(S)-pyrrolidin-3-yl-benzamide] | 1 to 50 nM | –
5 | COc1cc(C(=O)NCCCN(C)C)ccc1Nc1ncc2c(n1)N(CCc1cccs1)CC(F)(F)C(=O)N2C [Example I-273, 4-[7,7-difluoro-5-methyl-6-oxo-9-(2-thiophen-2-yl-ethyl)-6,7,8,9-tetrahydro-5H-pyrimido[4,5-b][1,4]diazepin-2-ylamino]-N-(3-dimethylamino-propyl)-3-methoxy-benzamide] | – | 1 to 50 nM
6 | CCCN1C(=O)C(F)(F)CN(C2CCCC2)c2nc(Nc3ccc(C(=O)NC)cc3)ncc21 [Example I-146, 4-(9-cyclopentyl-7,7-difluoro-6-oxo-5-propyl-6,7,8,9-tetrahydro-5H-pyrimido[4,5-b][1,4]diazepin-2-ylamino)-N-methyl-benzamide] | 500 to 5000 nM | –
7 | CCN1CCC(NC(=O)c2ccc(Nc3ncc4c(n3)N(C3CCCC3)CC(F)(F)C(=O)N4C)c(F)c2F)CC1 [Example I-244] | – | 1 to 50 nM
8 | COc1cc(C(=O)NC2CCOCC2)ccc1Nc1ncc2c(n1)N(C1CCCC1)CC(F)(F)C(=O)N2C [Example I-124] | 1 to 50 nM | –
9 | CCCN1C(=O)C(F)(F)CN(C2CCCC2)c2nc(Nc3ccc(C(=O)NC4CCN(C)CC4)cc3)ncc21 [Example I-147, 4-(9-cyclopentyl-7,7-difluoro-6-oxo-5-propyl-6,7,8,9-tetrahydro-5H-pyrimido[4,5-b][1,4]diazepin-2-ylamino)-N-(1-methyl-piperidin-4-yl)-benzamide] | 51 to 500 nM | –
10 | CCN1CCC(NC(=O)c2ccc(Nc3ncc4c(n3)N(C3CCCC3)CC(F)(F)C(=O)N4C)c(C)c2)CC1 [Example I-186, 4-(9-cyclopentyl-7,7-difluoro-5-methyl-6-oxo-6,7,8,9-tetrahydro-5H-pyrimido[4,5-b][1,4]diazepin-2-ylamino)-N-(1-ethyl-piperidin-4-yl)-3-methyl-benzamide] | – | 1 to 50 nM
11 | COc1cc(C(=O)N[C@@H]2CNC[C@H]2O)ccc1Nc1ncc2c(n1)N(C1CCCC1)CC(F)(F)C(=O)N2C [Example I-104, 4-(9-cyclopentyl-7,7-difluoro-5-methyl-6-oxo-6,7,8,9-tetrahydro-5H-pyrimido[4,5-b][1,4]diazepin-2-ylamino)-N-((3R,4R)-4-hydroxy-pyrrolidin-3-yl)-3-methoxy-benzamide] | 1 to 50 nM | –
12 | CCN1CCC(NC(=O)c2cc(F)c(Nc3ncc4c(n3)N(C3CCCC3)CC(F)(F)C(=O)N4C)cc2F)CC1 [Example I-234, 4-(9-cyclopentyl-7,7-difluoro-5-methyl-6-oxo-6,7,8,9-tetrahydro-5H-pyrimido[4,5-b][1,4]diazepin-2-ylamino)-N-(1-ethyl-piperidin-4-yl)-2,5-difluoro-benzamide] | – | 1 to 50 nM
13 | COc1cc(C(=O)NCCCN2CCOCC2)ccc1Nc1ncc2c(n1)N(C1CCCC1)CC(F)(F)C(=O)N2C [Example I-79, 4-(9-cyclopentyl-7,7-difluoro-5-methyl-6-oxo-6,7,8,9-tetrahydro-5H-pyrimido[4,5-b][1,4]diazepin-2-ylamino)-3-methoxy-N-(3-morpholin-4-yl-propyl)-benzamide] | 1 to 50 nM | –
14 | COc1cc(C(=O)NCCCN(C)C)ccc1Nc1ncc2c(n1)N(CCCc1ccccc1)CC(F)(F)C(=O)N2C [Example I-285, 4-[7,7-difluoro-5-methyl-6-oxo-9-(3-phenyl-propyl)-6,7,8,9-tetrahydro-5H-pyrimido[4,5-b][1,4]diazepin-2-ylamino]-N-(3-dimethylamino-propyl)-3-methoxy-benzamide] | – | 1 to 50 nM
15 | COc1cc(C(=O)N[C@H]2CC[C@@H](N)CC2)ccc1Nc1ncc2c(n1)N(C1CCCC1)CC(F)(F)C(=O)N2C [Example I-98, cis-N-(4-amino-cyclohexyl)-4-(9-cyclopentyl-7,7-difluoro-5-methyl-6-oxo-6,7,8,9-tetrahydro-5H-pyrimido[4,5-b][1,4]diazepin-2-ylamino)-3-methoxy-benzamide] | 1 to 50 nM | –
16 | CCOc1cc(C(=O)NC2CCN(C)CC2)ccc1Nc1ncc2c(n1)N(C1CCCC1)CC(F)(F)C(=O)N2C [Example I-215, 4-(9-cyclopentyl-7,7-difluoro-5-methyl-6-oxo-6,7,8,9-tetrahydro-5H-pyrimido[4,5-b][1,4]diazepin-2-ylamino)-3-ethoxy-N-(1-methyl-piperidin-4-yl)-benzamide] | – | 1 to 50 nM
17 | COc1cc(C(=O)N[C@H]2CC[C@H](N3CCN(CC4CC4)CC3)CC2)ccc1Nc1ncc2c(n1)N(C(C)C)CC(F)(F)C(=O)N2C [Example I-302, N-[trans-4-(4-cyclopropylmethyl-piperazin-1-yl)-cyclohexyl]-4-(7,7-difluoro-9-isopropyl-5-methyl-6-oxo-6,7,8,9-tetrahydro-5H-pyrimido[4,5-b][1,4]diazepin-2-ylamino)-3-methoxy-benzamide] | – | 1 to 50 nM
18 | CNC(=O)c1ccc(Nc2ncc3c(n2)N(C2CCC2)CC(F)(F)C(=O)N3C)cc1 [Example I-13, 4-(9-cyclobutyl-7,7-difluoro-5-methyl-6-oxo-6,7,8,9-tetrahydro-5H-pyrimido[4,5-b][1,4]diazepin-2-ylamino)-N-methyl-benzamide] | 51 to 500 nM | –
19 | COc1cc(C(=O)Nc2cccnc2)ccc1Nc1ncc2c(n1)N(C1CCCC1)CC(F)(F)C(=O)N2C [Example I-130, 4-(9-cyclopentyl-7,7-difluoro-5-methyl-6-oxo-6,7,8,9-tetrahydro-5H-pyrimido[4,5-b][1,4]diazepin-2-ylamino)-3-methoxy-N-pyridin-3-yl-benzamide] | 1 to 50 nM | –
20 | CCCN1C(=O)C(F)(F)CN(C2CCCC2)c2nc(Nc3ccc(C(=O)NCCCN(C)C)cc3OC)ncc21 [Example I-166, 4-(9-cyclopentyl-5-propyl-7,7-difluoro-6-oxo-6,7,8,9-tetra-hydro-5H-pyrimido[4,5-b][1,4]diazepin-2-ylamino)-N-(3-dimethylamino-propyl)-3-methoxy-benzamide] | – | 51 to 500 nM
21 | COc1cc(C(=O)NC2CCNCC2)ccc1Nc1ncc2c(n1)N(C1CCC1)CC(F)(F)C(=O)N2C [Example I-5, 4-(9-cyclobutyl-7,7-difluoro-5-methyl-6-oxo-6,7,8,9-tetrahydro-5H-pyrimido[4,5-b][1,4]diazepin-2-ylamino)-3-methoxy-N-piperidin-4-yl-benzamide] | 1 to 50 nM | –
22 | CNC(=O)c1ccc(Nc2ncc3c(n2)N(CCc2ccccc2)CC(F)(F)C(=O)N3C)c(OC)c1 [Example I-278, 4-(7,7-difluoro-5-methyl-6-oxo-9-phenethyl-6,7,8,9-tetrahydro-5H-pyrimido[4,5-b][1,4]diazepin-2-ylamino)-3-methoxy-N-methyl-benzamide] | – | 51 to 500 nM
23 | CNC(=O)c1ccc(Nc2ncc3c(n2)N(CCc2cccs2)CC(F)(F)C(=O)N3C)c(OC)c1 [Example I-272, 4-[7,7-difluoro-5-methyl-6-oxo-9-(2-thiophen-2-yl-ethyl)-6,7,8,9-tetrahydro-5H-pyrimido[4,5-b][1,4]diazepin-2-ylamino]-3-methoxy-N-methyl-benzamide] | – | 1 to 50 nM
24 | COc1cc(C(N)=O)ccc1Nc1ncc2c(n1)N(C1CCCC1)CC(F)(F)C(=O)N2C [Example I-23, 4-(9-cyclopentyl-7,7-difluoro-5-methyl-6-oxo-6,7,8,9-tetrahydro-5H-pyrimido[4,5-b][1,4]diazepin-2-ylamino)-3-methoxy-benzamide] | 1 to 50 nM | –
25 | COc1cc(C(=O)O)ccc1Nc1ncc2c(n1)N(C(C)C)CC(F)(F)C(=O)N2C [Example I-292, 4-(7,7-difluoro-9-isopropyl-5-methyl-6-oxo-6,7,8,9-tetrahydro-5H-pyrimido[4,5-b][1,4]diazepin-2-ylamino)-3-methoxy-benzoic acid] | – | 51 to 500 nM
26 | COc1cc(C(=O)NCCc2ccccn2)ccc1Nc1ncc2c(n1)N(C1CCCC1)CC(F)(F)C(=O)N2C [Example I-116, 4-(9-cyclopentyl-7,7-difluoro-5-methyl-6-oxo-6,7,8,9-tetrahydro-5H-pyrimido[4,5-b][1,4]diazepin-2-ylamino)-3-methoxy-N-(2-pyridin-2-yl-ethyl)-benzamide] | 1 to 50 nM | –
27 | CNC(=O)c1ccc(Nc2ncc3c(n2)N(C2CCC2)CC(F)(F)C(=O)N3C)c(OC)c1 [Example I-3, 4-(9-cyclobutyl-7,7-difluoro-5-methyl-6-oxo-6,7,8,9-tetrahydro-5H-pyrimido[4,5-b][1,4]diazepin-2-ylamino)-3-methoxy-N-methyl-benzamide] | 1 to 50 nM | –

From patent publication US8003785B2 (Takeda Pharmaceutical Company Limited, priority 2008, dated 2011)
